Calls of active or inactive are those of the source. No cut-off for these calls is given here.
Columns and labels:
[1] = target: Sodium-dependent serotonin transporter (Homo sapiens, UniProt P31645); experiment: Inhibition of [3H]serotonin reuptake at human SERT expressed in CHO cells after 20 mins by scintillation counting; format: cell-based
[2] = target: Sodium-dependent noradrenaline transporter (Homo sapiens, UniProt P23975); experiment: Inhibition of [3H]norepinephrine reuptake at human NET expressed in CHO cells after 45 mins by scintillation counting; format: cell-based
[3] = target: Sodium-dependent dopamine transporter (Homo sapiens, UniProt Q01959); experiment: Inhibition of [3H]dopamine reuptake at human DAT expressed in CHO cells after 60 mins by scintillation counting; format: cell-based
[4] = target: Cytochrome P450 2D6 (Homo sapiens, UniProt P10635); experiment: Inhibition of CYP2D6 (unknown origin); format: ADME
[5] = target: Voltage-gated inwardly rectifying potassium channel KCNH2 (Homo sapiens, UniProt Q12809); experiment: Inhibition of human ERG
[6] = system: Mus musculus; experiment: Antidepressant activity in po dosed ICR mouse assessed as immobility time measured 60 mins post dose by tail-suspension test; format: functional, organism-based
[7] = system: Mus musculus; experiment: Antidepressant activity in ICR mouse assessed as immobility time at 3 mg/kg, po measured 60 mins post dose by tail-suspension test; format: functional, organism-based; design: dose 3 mg/kg
[8] = system: Mus musculus; experiment: Increase in extracellular 5-HT level in ICR mouse prefrontal cortex at 3 mg/kg, po measured at 120 mins post dose relative to basal level by microdialysis; format: functional
[9] = system: Mus musculus; experiment: Increase in extracellular norepinephrine level in ICR mouse prefrontal cortex at 3 mg/kg, po measured at 120 mins post dose relative to basal level by microdialysis; format: functional
[10] = system: Mus musculus; experiment: Increase in extracellular dopamine level in ICR mouse prefrontal cortex at 3 mg/kg, po measured at 120 mins post dose relative to basal level by microdialysis; format: functional

Sequence of Sodium-dependent serotonin transporter (P31645 whole entry): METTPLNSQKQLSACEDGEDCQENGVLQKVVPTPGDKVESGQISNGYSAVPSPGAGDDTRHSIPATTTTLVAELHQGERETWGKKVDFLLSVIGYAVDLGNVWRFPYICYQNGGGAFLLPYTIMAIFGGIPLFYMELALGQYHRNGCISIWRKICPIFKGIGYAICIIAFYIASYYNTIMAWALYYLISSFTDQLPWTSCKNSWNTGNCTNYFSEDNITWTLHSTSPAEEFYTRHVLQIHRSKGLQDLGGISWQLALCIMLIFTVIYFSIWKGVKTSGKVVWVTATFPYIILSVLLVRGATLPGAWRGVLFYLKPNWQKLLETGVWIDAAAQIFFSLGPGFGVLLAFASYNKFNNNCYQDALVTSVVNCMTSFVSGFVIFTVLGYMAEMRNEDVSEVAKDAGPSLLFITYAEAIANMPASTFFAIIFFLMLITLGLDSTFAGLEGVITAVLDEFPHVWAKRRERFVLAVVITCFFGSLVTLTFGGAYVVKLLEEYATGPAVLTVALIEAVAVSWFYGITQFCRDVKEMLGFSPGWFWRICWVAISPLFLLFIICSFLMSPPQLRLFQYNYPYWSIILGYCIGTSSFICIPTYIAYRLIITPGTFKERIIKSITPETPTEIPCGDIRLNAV
Sequence of Cytochrome P450 2D6 (P10635 whole entry): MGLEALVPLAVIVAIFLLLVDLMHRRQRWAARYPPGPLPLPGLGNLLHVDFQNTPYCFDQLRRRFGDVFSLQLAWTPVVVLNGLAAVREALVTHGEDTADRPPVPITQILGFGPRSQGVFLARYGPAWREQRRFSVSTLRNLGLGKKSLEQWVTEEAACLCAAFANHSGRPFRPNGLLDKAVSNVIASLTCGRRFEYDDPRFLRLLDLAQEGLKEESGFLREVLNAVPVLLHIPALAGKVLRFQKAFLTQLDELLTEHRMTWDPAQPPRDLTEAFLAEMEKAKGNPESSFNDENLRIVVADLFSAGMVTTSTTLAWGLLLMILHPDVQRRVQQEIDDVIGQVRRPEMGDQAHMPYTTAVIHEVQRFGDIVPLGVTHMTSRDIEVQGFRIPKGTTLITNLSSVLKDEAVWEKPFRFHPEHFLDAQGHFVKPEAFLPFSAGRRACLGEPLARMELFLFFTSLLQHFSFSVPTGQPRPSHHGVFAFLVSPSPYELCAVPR
Sequence of Voltage-gated inwardly rectifying potassium channel KCNH2 (Q12809 whole entry): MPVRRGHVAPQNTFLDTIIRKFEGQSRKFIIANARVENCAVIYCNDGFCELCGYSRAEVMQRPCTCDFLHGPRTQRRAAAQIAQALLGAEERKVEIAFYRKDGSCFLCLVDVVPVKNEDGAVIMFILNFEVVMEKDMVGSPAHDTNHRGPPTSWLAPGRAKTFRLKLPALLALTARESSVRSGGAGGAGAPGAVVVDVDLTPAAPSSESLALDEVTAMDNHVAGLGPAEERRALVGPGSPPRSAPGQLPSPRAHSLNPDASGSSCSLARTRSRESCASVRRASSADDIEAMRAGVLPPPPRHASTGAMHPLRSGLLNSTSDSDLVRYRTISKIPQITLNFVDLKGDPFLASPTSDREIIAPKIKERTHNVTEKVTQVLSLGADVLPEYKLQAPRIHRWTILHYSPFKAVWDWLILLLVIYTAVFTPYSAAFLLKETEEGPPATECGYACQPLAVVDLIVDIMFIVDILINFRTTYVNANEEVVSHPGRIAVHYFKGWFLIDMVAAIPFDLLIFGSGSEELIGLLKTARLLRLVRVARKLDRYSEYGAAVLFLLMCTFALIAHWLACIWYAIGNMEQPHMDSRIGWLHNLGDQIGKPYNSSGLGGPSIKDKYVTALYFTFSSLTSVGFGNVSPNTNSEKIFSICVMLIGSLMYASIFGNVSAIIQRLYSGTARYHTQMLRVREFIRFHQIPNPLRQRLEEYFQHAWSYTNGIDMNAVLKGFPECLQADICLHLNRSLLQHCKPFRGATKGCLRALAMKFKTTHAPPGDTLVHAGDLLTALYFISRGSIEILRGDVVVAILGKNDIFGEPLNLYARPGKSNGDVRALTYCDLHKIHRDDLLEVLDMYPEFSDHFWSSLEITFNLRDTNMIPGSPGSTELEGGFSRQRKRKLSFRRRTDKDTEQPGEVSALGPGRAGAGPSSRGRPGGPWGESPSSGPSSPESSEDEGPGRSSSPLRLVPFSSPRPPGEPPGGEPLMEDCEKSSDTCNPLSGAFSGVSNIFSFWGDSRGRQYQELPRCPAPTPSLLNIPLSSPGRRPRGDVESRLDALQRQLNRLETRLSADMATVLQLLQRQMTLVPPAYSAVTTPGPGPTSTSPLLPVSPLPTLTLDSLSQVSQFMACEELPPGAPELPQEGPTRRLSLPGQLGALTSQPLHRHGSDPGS
Sequence of Sodium-dependent dopamine transporter (Q01959 whole entry): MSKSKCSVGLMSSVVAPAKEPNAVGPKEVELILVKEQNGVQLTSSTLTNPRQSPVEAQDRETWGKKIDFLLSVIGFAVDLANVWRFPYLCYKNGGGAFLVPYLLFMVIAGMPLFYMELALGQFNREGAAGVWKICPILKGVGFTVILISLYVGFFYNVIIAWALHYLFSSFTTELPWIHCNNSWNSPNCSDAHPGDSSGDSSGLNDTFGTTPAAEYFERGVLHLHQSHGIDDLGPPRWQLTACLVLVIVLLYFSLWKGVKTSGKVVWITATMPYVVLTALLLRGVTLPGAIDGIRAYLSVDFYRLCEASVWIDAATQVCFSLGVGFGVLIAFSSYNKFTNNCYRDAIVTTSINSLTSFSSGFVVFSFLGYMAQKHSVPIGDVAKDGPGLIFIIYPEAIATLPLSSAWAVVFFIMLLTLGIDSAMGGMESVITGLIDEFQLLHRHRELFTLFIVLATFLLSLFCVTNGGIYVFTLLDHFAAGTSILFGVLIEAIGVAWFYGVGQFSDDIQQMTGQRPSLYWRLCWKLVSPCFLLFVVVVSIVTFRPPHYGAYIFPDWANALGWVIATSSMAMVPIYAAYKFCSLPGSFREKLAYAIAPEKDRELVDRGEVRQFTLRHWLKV
Sequence of Sodium-dependent noradrenaline transporter (P23975 whole entry): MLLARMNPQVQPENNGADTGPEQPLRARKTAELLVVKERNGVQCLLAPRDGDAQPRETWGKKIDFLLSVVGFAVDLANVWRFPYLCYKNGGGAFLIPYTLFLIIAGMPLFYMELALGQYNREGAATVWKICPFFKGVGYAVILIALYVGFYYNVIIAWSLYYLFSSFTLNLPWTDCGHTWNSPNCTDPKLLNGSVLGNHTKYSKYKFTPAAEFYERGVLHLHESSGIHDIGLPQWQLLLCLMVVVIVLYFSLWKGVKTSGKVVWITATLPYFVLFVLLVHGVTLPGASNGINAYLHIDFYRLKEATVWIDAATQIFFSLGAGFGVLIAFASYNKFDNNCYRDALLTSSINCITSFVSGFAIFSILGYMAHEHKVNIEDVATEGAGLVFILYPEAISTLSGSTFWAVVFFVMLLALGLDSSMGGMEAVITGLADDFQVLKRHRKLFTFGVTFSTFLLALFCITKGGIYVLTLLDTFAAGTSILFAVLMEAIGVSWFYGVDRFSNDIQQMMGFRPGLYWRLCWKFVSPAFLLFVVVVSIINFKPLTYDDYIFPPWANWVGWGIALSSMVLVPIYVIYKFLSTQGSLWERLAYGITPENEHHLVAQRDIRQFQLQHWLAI

Row | Structure (SMILES) | IC50 [1] [nM] | IC50 [2] [nM] | IC50 [3] [nM] | inhibition (INH) [4] | inhibition (INH) [5] | Activity [6] | Activity [7] | Activity [8] [%] | Activity [9] [%] | Activity [10] [%]
1 | CN1CCCN(c2ccc(Cl)c(Cl)c2)C(=O)C1.Cl | 5500 | 3200 | > 10000 | Not Active | Not Active |  |  |  |  | 
2 | Cl.O=C1CNCCCN1c1ccc(Cl)c(Cl)c1 | 50 | 13 | 420 | Not Active | Not Active |  |  |  |  | 
3 | CC1CCN(c2ccc(Cl)c(Cl)c2)C(=O)CN1.Cl (racemic) | 4300 | 1700 | > 10000 | Not Active | Not Active |  |  |  |  | 
4 | CC1NCCCN(c2ccc(Cl)c(Cl)c2)C1=O.Cl (racemic) | 530 | 8 | 470 | Not Active | Not Active |  |  |  |  | 
5 | O=C1CNCC2(CC2)CN1c1ccc(Cl)c(Cl)c1 | 2200 | 82 | 120 |  |  |  |  |  |  | 
6 | CCC1NCCCN(c2ccc(Cl)c(Cl)c2)C1=O.Cl (racemic) | 570 | 7.7 | 190 | Not Active | Not Active |  |  |  |  | 
7 | CCC1NCCCN(c2ccc3ccccc3c2)C1=O.Cl (racemic) | 88 | 9.2 | 130 | Not Active | Not Active |  |  |  |  | 
8 | C[C@H]1NCCCN(c2ccc3ccccc3c2)C1=O | 260 | 570 | > 10000 |  |  |  |  |  |  | 
9 | CC1NCCCN(c2ccc3ccccc3c2)C1=O.Cl (racemic) | 200 | 14 | 340 | Not Active | Not Active |  |  |  |  | 
10 | C[C@@H]1NCCCN(c2ccc3ccccc3c2)C1=O.Cl | 83 | 3.8 | 160 | Not Active | Not Active | Dose-dependent effect | Active | 210 | 750 | 640
11 | CC1CNCC(=O)N(c2ccc(Cl)c(Cl)c2)C1 (racemic) | 2200 | 260 | 4000 |  |  |  |  |  |  | 
12 | CC1CCNCC(=O)N1c1ccc(Cl)c(Cl)c1 (racemic) | 1900 | 660 | 4500 |  |  |  |  |  |  | 
13 | O=C1CNCC(F)(F)CN1c1ccc(Cl)c(Cl)c1 | 1300 | 2000 | 8100 |  |  |  |  |  |  | 

From ChEMBL document CHEMBL3352612, “Design, synthesis, and biological activities of 1-aryl-1,4-diazepan-2-one derivatives as novel triple reuptake inhibitors” (Bioorg Med Chem Lett, 2014)
